The results in this text go back to publication PMC9907135 (Proceedings of the National Academy of Sciences of the …, 2022).

SMILES strings stand for the structures. Bridge positions count the residues as written; N and C are the ends. Square brackets hold non-standard residues; d marks the D form. Peptide text beside a SMILES is read from it. R8 = C=CCCCCCC[C@@](C)(N)C(=O)O; S5 = C=CCCC[C@](C)(N)C(=O)O; Nle = CCCC[C@H](N)C(=O)O

Series [1] concerns the target RNF31 UBA domain (Homo sapiens, UniProt Q96EP0). Put plainly: biochemical.
Series [2] concerns the target T1, PD-L1:PD-1 (Homo sapiens, UniProt Q9NZQ7). The note with it: SPR ABA competition, 10 μM compound, 400 nM PD-1.
Target sequence in this assay (Q9NZQ7 18-239): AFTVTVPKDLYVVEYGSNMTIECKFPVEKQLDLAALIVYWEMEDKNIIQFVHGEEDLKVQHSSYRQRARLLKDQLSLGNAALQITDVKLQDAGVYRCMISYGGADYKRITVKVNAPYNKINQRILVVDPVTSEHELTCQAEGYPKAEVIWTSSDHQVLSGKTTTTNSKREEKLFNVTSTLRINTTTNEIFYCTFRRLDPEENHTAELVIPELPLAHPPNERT
For series [3], the target named is T1, PD-L1:PD-1. Conditions: competition ELISA; n = 2. On the technique in general: In an ELISA, binding on a coated surface is turned into a signal by an enzyme label.
Target sequence in this assay (Q9NZQ7 19-238 limits assumed): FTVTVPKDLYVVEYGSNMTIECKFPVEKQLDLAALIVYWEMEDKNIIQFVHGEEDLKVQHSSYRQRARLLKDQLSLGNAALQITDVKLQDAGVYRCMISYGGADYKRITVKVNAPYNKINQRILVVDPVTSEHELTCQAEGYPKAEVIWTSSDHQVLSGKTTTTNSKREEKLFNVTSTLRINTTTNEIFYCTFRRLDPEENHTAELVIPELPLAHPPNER
In series [4] the target is PD-L1 (Homo sapiens, UniProt Q9NZQ7). Conditions: TR-FRET; n = 3 for FP peptides, n = 2 for BMS-1001. (In TR-FRET formats the signal depends on donor and acceptor labels being close together.)
Series [5] has as its system Expi293 cells. The note with it: percentage of Helicons in cells after treatment and wash; Expi293 cells 1x10^6 cells/mL, 22 hours, 37°C; washed twice with DPBS; MS quantitation, single-point calibration; n=2, mean ± SD.
Series [6] relates to Expi293 cells. Conditions: luminescence at Tfinal (22 hours) divided by Tinitial, measure of ATP levels, reflective of cell health.

Sequence of RNF31 UBA domain (Q96EP0 480-639): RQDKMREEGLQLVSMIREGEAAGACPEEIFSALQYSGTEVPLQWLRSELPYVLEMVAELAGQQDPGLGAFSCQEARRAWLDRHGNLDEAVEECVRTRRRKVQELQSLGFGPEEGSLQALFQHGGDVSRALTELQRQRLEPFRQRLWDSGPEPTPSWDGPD
Sequence of PD-L1 (Q9NZQ7 18-239): as the sequence (Q9NZQ7 18-239) above

One may read the koff as the rate constant with which the complex falls apart. One may read the kon as the second-order rate constant of association. On to `CC[C@H](C)[C@H](NC(=O)[C@H](C)NC(=O)[C@@H]1CSCC(=O)Nc2ccc(cc2)NC(=O)CSC[C@H](NC(=O)[C@H](CCCNC(=N)N)NC(=O)[C@H](CCC(N)=O)NC(=O)[C@H](CCSC)NC(=O)[C@H](C)NC(=O)[C@@H]2CCCN2C(=O)[C@H](CC(=O)O)NC(C)=O)C(=O)N[C@@H](Cc2ccccc2)C(=O)N[C@@H](CO)C(=O)N[C@@H](C)C(=O)N[C@@H](C)C(=O)N[C@@H](C(C)C)C(=O)N[C@@H](Cc2ccc(O)cc2)C(=O)N1)C(=O)N[C@@H](CO)C(N)=O` [FP06655], for which the koff in series [1] (read-out: RNF31 UBA Binding koff) came to 0.052 s⁻¹. Besides, the association rate constant (kon) in series [1] (read-out: RNF31 UBA Binding kon) was 1.4e+06 M⁻¹ s⁻¹.
On to `Cc1cc(CN[C@H](CO)C(=O)O)c(OCc2cccc(C#N)c2)cc1OCc1cccc(-c2ccc3c(c2)OCCO3)c1C` [BMS-1001], for which the “Competition with PD-1 for binding to PD-L1” value in series [2] is given as “compete more potently”. Further, the “Inhibition of PD-L1:PD-1 binding” value in series [3] is “inhibits PD-L1:PD-1 binding”. Moreover, in series [4], the “PD-L1 dimerization in solution” value is “clear evidence of PD-L1 dimerization”.
Regarding `CCCC[C@H](NC(=O)[C@@H](NC(C)=O)C(C)C)C(=O)N[C@@H](CCC(N)=O)C(=O)N[C@]1(C)CCCCCCC=CCCC[C@@](C)(C(=O)N[C@@H](Cc2c[nH]cn2)C(=O)N[C@@H](Cc2ccc(O)cc2)C(=O)N[C@H](C(N)=O)C(C)C)NC(=O)[C@H]([C@@H](C)CC)NC(=O)[C@H](Cc2ccccc2)NC(=O)[C@H](C)NC(=O)[C@H](C)NC(=O)[C@H](CCC(N)=O)NC(=O)[C@H](Cc2ccc(O)cc2)NC1=O` [FP07871] (Ac-V[Nle]Q[R8]YQAAFI[S5]HYV-NH2; staple 4-11), the “Helicon in cells ± SD (%)” value in series [5] turned out to be 7.0 ± 0.3%. Also, in series [6], the “CellTiter-Glo fold change ± SD” value amounted to 1.2 ± 0.03.
Regarding `CCCC[C@H](NC(=O)[C@@H](NC(C)=O)[C@@H](C)CC)C(=O)N[C@@H](C)C(=O)N[C@]1(C)CCCCCCC=CCCC[C@@](C)(C(=O)N[C@@H](CCC(N)=O)C(=O)N[C@@H](Cc2ccc(O)cc2)C(=O)N[C@@H](CC(N)=O)C(N)=O)NC(=O)[C@H](Cc2c[nH]c3ccccc23)NC(=O)[C@H](Cc2ccccc2)NC(=O)[C@H](C)NC(=O)[C@H](C)NC(=O)[C@H](CCC(N)=O)NC(=O)[C@H](Cc2ccc(O)cc2)NC1=O` [FP08023] (Ac-I[Nle]A[R8]YQAAFW[S5]QYN-NH2; staple 4-11), the “Helicon in cells ± SD (%)” value in series [5] amounted to 3.0 ± 0.3%. In addition, the “CellTiter-Glo fold change ± SD” value in series [6] was determined as 1.2 ± 0.03.
As to `CC[C@H](C)[C@H](NC(=O)[C@H](Cc1ccc(O)cc1)NC(=O)[C@H](CCC(N)=O)NC(=O)[C@]1(C)CCCC=CCCCCCC[C@@](C)(NC(=O)[C@H](Cc2c[nH]cn2)NC(=O)[C@@H](NC(=O)[C@@H](NC(C)=O)[C@@H](C)CC)[C@@H](C)CC)C(=O)N[C@@H](Cc2ccc(O)cc2)C(=O)N[C@@H](CCC(=O)O)C(=O)N[C@@H](C)C(=O)N[C@@H](C)C(=O)N[C@@H](Cc2ccccc2)C(=O)N[C@@H](Cc2ccccc2)C(=O)N1)C(N)=O` [FP08012] (Ac-IIH[R8]YEAAFF[S5]QYI-NH2; staple 4-11), the “Helicon in cells ± SD (%)” value in series [5] stood at 5.4 ± 0.9%. In series [6], the “CellTiter-Glo fold change ± SD” value was 1.1 ± 0.04.
